# Data published in US20220160751A1, “METHODS OF TREATMENT OF DISEASES AND DISORDERS ASSOCIATED WITH INCREASED TET LEVEL, INCREASED H19 LEVEL, INCREASED LEVEL OF TGF SIGNALING, OR ANY COMBINATION THEREOF” (YALE UNIVERSITY, priority 2019, published 2022).
# Assays:
# [1] = system: MED12, TGFBR2 and TSP1 promoters; assay: ChIP-qPCR, methylation profiling and QMSP in leiomyoma cells; type: cell-based, human; settings: vs siCon
# Procedure: gDNA was extracted from primary leiomyoma cells from one well of 24-well plates using Quick-gDNA MicroPrep (Zymo Research Corporation, Irvine, Calif.; D3021) according to the manufacturer's instructions. For bisulfite treatment, 200 ng of gDNA was used for each column using EZ DNA Methylation-Gold Kit (Zymo, D5006). 100 μl of elution buffer was used to elute gDNA from each column. Real-time quantitative PCR was performed in a 15 μl reaction containing 5 μl of the eluted gDNA using iQSYBRGreen (Bio-Rad, Hercules, Calif.; 1708880) in a Bio-Rad iCycler. Two sets of PCR primers were designed: one for unmethylated and one for methylated DNA sequences. The PCR primers for methylated DNA were used at a final concentration of 0.6 μM in each PCR reaction. PCR was performed by initial denaturation at 95° C. for 5 min, followed by 40 cycles of 30 sec at 95° C., 30 sec at 60° C., and 30 sec at 72° C. Specificity was verified by melting curve analysis and agarose gel electrophoresis. The threshold cycle (Ct) values of each sample were used in the post-PCR data analysis. The relative levels of methylated versus unmethylated DNA sequences are presented.
# These experiments were performed as previously described (Zhou J et al., 2015, Nat Commun 6:10221) with minor modifications. Briefly, experiments were performed in a 10-cm plate scale using the Pierce Agarose ChIP Kit (Thermo Scientific, 26156) according to the manufacturer's instructions with minor modifications. Agarose beads were used to pre-bind overnight with antibodies against TET3 (Millipore Sigma, ABE290), H3K4me3 (Cell signaling, C42D8) and H3K27me3 (Cell signaling, C36B11). Preimmune IgG was used as a negative control. Cells were cross-linked with 1% formaldehyde at room temperature for 10 min, and the reaction was stopped by 1× glycine. ChIPs were carried out overnight at 4° C. Primers for the specific promoter regions of MED12, TGFBR2, and TSP1 (FIG. 16A) were used to amplify input and ChIP-purified DNA. The relative enrichments of the indicated DNA regions were calculated using the Percent Input Method according to the manufacturer's instructions and were normalized to % input. Data are presented after normalization against background IgG signals.
# [2] = system: TGFB1, TSP1 and TGFBR2 promoters; assay: ChIP-qPCR and QMSP in LX-2 cells; type: cell-based, human; settings: 48 h, vs siCon
# Procedure: The assays were carried out as previously described in (Zhou J et al., 2015, Nat Commun 6:10221; Zhong T et al., 2016, Oncogene 36:2345-2354) with minor modifications. Briefly, gDNA was extracted from LX-2 cells in 24-well plates using Quick-gDNA MicroPrep (Zymo Research Corporation, Irvine, Calif.; D3021). For bisulfite treatment using EZ DNA Methylation-Gold Kit (Zymo, D5006), 90-500 ng of gDNA was used per column and 20-40 μl of elution buffer was used to elute DNA from each column. qPCR was performed in a 15 μl reaction containing 5 μl of eluted DNA using iQSYBRGreen (Bio-Rad, Hercules, Calif.; 1708880) in a Bio-Rad iCycler. PCR was conducted by initial denaturation at 95° C. for 5 min, followed by 40 cycles of 30 sec at 95° C., 30 sec at 60° C., and 30 sec at 72° C. Two sets of PCR primers were designed: one for unmethylated and one for methylated DNA sequences. The PCR primers for methylated DNA were used at a final concentration of 0.6 μM in each PCR reaction. The relative levels of methylated versus unmethylated DNA sequences are presented.
# These experiments were performed as previously described (Zhou J et al., 2015, Nat Commun 6:10221) with minor modifications. Briefly, experiments were performed in a 10-cm plate scale using Chromatin Prep Module Kit (Thermo, catalog number 26158) according to the manufacturer's instructions. Agarose beads were used to pre-bind overnight with antibodies against TET3 (Millipore Sigma, ABE290), H3K4me3 (Cell signaling, C42D8) and H3K27me3 (Cell signaling, C36B11). Preimmune IgG was used as a negative control. LX-2 cells were cross-linked with 1% formaldehyde at RT for 10 min and the reaction was stopped by 1× glycine. ChIPs were carried out overnight at 4° C. Primers (Table 1) for the specific promoter regions of TGFB1, TSP1, and TGFBR2 were used to amplify input and ChIP-purified DNA. The relative enrichments of the indicated DNA regions were calculated using the Percent Input Method according to the manufacturer's instructions and were normalized to % input. Data are presented after normalization against background IgG signals.
substance,measurement,setting,value
"siTET3: TET3-specific siRNA (human), Ambion 4392420/s47239 (sense CAGCAACUCCUAGAACUGATT; antisense UCAGUUCUAGGAGUUGCUGGA; chemistry not given here)","binding of TET3 to MED12, TGFBR2 and TSP1 promoters (ChIP-qPCR)","[1]; UtLM cells, 48 h",significantly reduced
same,H3K4me3 association with promoters,[1]; UtLM cells,significantly decreased H3K4me3
same,H3K27me3 association with promoters,[1]; UtLM cells,increased H3K27me3
same,decrease of the ratios of H3K4me3/H3K27me3,[1]; UtLM cells,5-8 fold
same,"methylation of CpGs within the CTRRs of MED12, TGFBR2 and TSP1 promoters","[1]; ht-UtLM genome-wide profiling, confirmed in UtLM by QMSP, 48 h",increased methylation of the CpGs within the CTRRs
same,H3K4me3 association with promoters,[2],significantly decreased H3K4me3
same,H3K27me3 association with promoters,[2],increased H3K27me3
same,"binding of TET3 to TGFB1, TSP1 and TGFBR2 promoters (ChIP-qPCR)",[2],significantly reduced
same,"methylation in the CTRRs of TGFB1, TSP1 and TGFBR2 (QMSP)",[2],increase in methylation in the CTRRs
same,ratios of H3K4me3/H3K27me3,[2],decreased significantly
